Laboratory results taken from the OPERA property sets (Mansouri et al. 2018).

Conditions: not given

Row | Compound | melting point | ready biodegradability | boiling point | log10 vapour pressure (mmHg) | log10 Koc (L/kg) | log10 Henry constant (atm·m³/mol) | log10 Koa
1 | COP(=S)(OC)Oc1ccc(S(=O)(=O)N(C)C)cc1 | 53 °C | readily biodegradable | – | – | – | – | –
2 | CCCCCCCCCCCCCCCC(=O)OC[C@H](O)[C@H]1OC(=O)C(O)=C1O | 116 °C | – | – | – | – | – | –
3 | CC(C)C(O)C(C)C | – | – | 139 °C | 0.477 | – | – | –
4 | CC(C)(C)c1ccc(O)c(N)c1 | 161 °C | – | – | – | – | – | –
5 | CNC(=O)ON=C(CSC)C(C)(C)C | 57 °C | – | – | -3.77 | – | – | –
6 | O=C(O)c1cccc2cccc(C(=O)O)c12 | 260 °C | – | – | – | – | – | –
7 | c1ccc(N=Nc2ccccc2)cc1 | 68.2 °C | not readily biodegradable | 293 °C | -3.44 | 3.3 | – | –
8 | CC1(C)CCC(=Cc2ccc(Cl)cc2)C1(O)Cn1cncn1 (centres undefined) | 140 °C | – | – | – | – | – | –
9 | Cc1ccccc1I | – | – | 212 °C | -0.344 | – | – | –
10 | Clc1cc2oc3c(Cl)c(Cl)ccc3c2cc1Cl | 195 °C | – | – | -7.68 | – | – | –
11 | O=[N+]([O-])c1ccc(S(=O)(=O)O)cc1 | – | not readily biodegradable | – | – | – | – | –
12 | N#CCC#N | 32 °C | – | 218 °C | -0.698 | – | – | –
13 | CCCCCO | -78.9 °C | readily biodegradable | 138 °C | 0.342 | 0.7 | -4.89 | 4.69
14 | CO[C@H]1[C@H](O)[C@H](O[C@H]2CC[C@@]3(C=O)[C@H](CC[C@@H]4[C@@H]3CC[C@]3(C)[C@@H](C5=CC(=O)OC5)CC[C@]43O)C2)O[C@@H](C)[C@@H]1O | 162 °C | – | – | – | – | – | –
15 | CCOC(=O)C(C(=O)OCC)c1ccccc1 | 16.5 °C | – | – | – | – | – | –
16 | COc1c(OC)c(OC(C)=O)c2ccccc2c1OC(C)=O | 138 °C | – | – | – | – | – | –
17 | NS(=O)(=O)c1ccc(S(=O)(=O)CCCO)c(F)c1 | 130 °C | – | – | – | – | – | –
18 | C1CCC(NC2CCCCC2)CC1 | -0.1 °C | readily biodegradable | 256 °C | -1.47 | – | – | –
19 | CC=Cc1ccccc1 | -28.2 °C | – | 177 °C | – | – | – | –
20 | Cc1ccc(O)c(N)c1 | 136 °C | – | – | – | – | – | –
21 | COc1c(Cl)c(Cl)c([N+](=O)[O-])c(Cl)c1Cl | 103 °C | – | – | – | – | – | –
22 | O=c1n(CCCN2CCN(c3cccc(Cl)c3)CC2)nc2ccccn12 | 87 °C | – | – | – | – | – | –
23 | CCCCC(CC)C(=O)OCC(COC(=O)C(CC)CCCC)OC(=O)C(CC)CCCC (centres undefined) | – | readily biodegradable | – | – | – | – | –
24 | O=C1CCc2cc(OCCCCc3nnnn3C3CCCCC3)ccc2N1 | 160 °C | – | – | – | – | – | –

Row | Compound | melting point | ready biodegradability | boiling point | log10 vapour pressure (mmHg) | log10 Koc (L/kg) | log10 Henry constant (atm·m³/mol) | log10 Koa
25 | CCCOC(N)=O | 60 °C | – | 196 °C | -1.26 | – | – | –
26 | Nc1ccc2ccccc2c1N | 98.5 °C | – | – | – | – | – | –
27 | CCn1cc(C(=O)O)c(=O)c2cc(F)c(N3CCNC(C)C3)c(F)c21 (centres undefined) | 240 °C | – | – | – | – | – | –
28 | CCCCOC(=O)/C=C\C(=O)OCCCC | -85 °C | – | 281 °C | -3.21 | – | – | –
29 | CCC(C)(C)C(=O)O | -14 °C | – | 186 °C | -0.83 | – | – | –
30 | CCC(Oc1c(I)cc(I)cc1I)C(=O)O (centres undefined) | 124 °C | – | – | – | – | – | –
31 | CON=C(Cc1cccnc1)c1ccc(Cl)cc1Cl | – | – | – | -4.89 | – | – | –
32 | CCC(C)(C)c1ccccc1 | – | not readily biodegradable | 192 °C | – | – | – | –
33 | C=CCN1CC[C@]23CCCC[C@H]2[C@H]1Cc1ccc(O)cc13 | 181 °C | – | – | – | – | – | –
34 | Brc1ccsc1Br | -17.5 °C | – | 218 °C | – | – | – | –
35 | CCCCCCC=NO | 57.5 °C | – | 195 °C | – | – | – | –
36 | OCCc1ccc(O)cc1 | 90 °C | – | – | – | – | – | –
37 | COCC(C)OC(C)=O (centres undefined) | – | – | 146 °C | 0.593 | 0.36 | – | –
38 | NCc1ccc(Br)cc1 | 20 °C | – | 250 °C | – | – | – | –
39 | O=C(O)COc1c(F)c(F)c(F)c(F)c1F | 109 °C | – | – | – | – | – | –
40 | C=CCSCC=C | -85 °C | – | 139 °C | 0.965 | – | – | –
41 | CC(C)OC(=O)c1cc(C(=O)OC(C)C)cc([N+](=O)[O-])c1 | 65 °C | – | – | – | – | – | –
42 | Nc1ccccc1Nc1ccccc1 | 79.5 °C | – | 313 °C | – | – | – | –
43 | CNC(=O)n1cc(F)c(=O)[nH]c1=O | 226 °C | – | – | – | – | – | –
44 | CC(CCO)C(F)(F)F (centres undefined) | – | – | 140 °C | – | – | – | –
45 | O=C(O)c1cc(Cl)c(Cl)c(Cl)c1Cl | 194 °C | – | – | – | – | – | –
46 | CCOC(=O)C(C)(C)Oc1ccc(Cl)cc1 | – | readily biodegradable | – | – | – | – | –
47 | Clc1ccc(Br)cc1Cl | 25 °C | – | 237 °C | – | – | – | –
48 | OCC(F)(F)C(F)(F)C(F)(F)F | – | – | 95 °C | 1.52 | – | – | –

Row | Compound | melting point | ready biodegradability | boiling point | log10 vapour pressure (mmHg) | log10 Koc (L/kg) | log10 Henry constant (atm·m³/mol) | log10 Koa
49 | CCC(N)(CO)CO | 37.5 °C | not readily biodegradable | – | – | – | – | –
50 | O=C([O-])Cc1ccccc1Nc1c(Cl)cccc1Cl.[Na+] | 284 °C | – | – | – | – | – | –
51 | c1ccc2c(c1)cc1c3ccccc3c3cccc4ccc2c1c43 | 234 °C | – | – | – | – | – | –
52 | O=Cc1ccc(O)c(Cl)c1 | 139 °C | – | – | – | – | – | –
53 | CCCCCC1C(=O)CCC1CC(=O)OC (centres undefined) | -10 °C | readily biodegradable | – | – | – | – | –
54 | CCCC=C(C=O)CC | – | readily biodegradable | 195 °C | 0.107 | – | – | –
55 | CCn1cc(C(=O)O)c(=O)c2cnc(N3CCNCC3)nc21 | 254 °C | – | – | – | – | – | –
56 | C=C(C)C1CC=C(C)CC1 (centres undefined) | -86.4 °C | readily biodegradable | 176 °C | 0.215 | – | – | –
57 | C=C(C)C(=O)OCCOCCOCCOCCOC(=O)C(=C)C | – | – | 220 °C | – | – | – | –
58 | CN(C)C(CSS(=O)(=O)c1ccccc1)CSS(=O)(=O)c1ccccc1 | 83.5 °C | – | – | – | – | – | –
59 | COc1ccc(N)c(C)c1 | 29.5 °C | – | 248 °C | – | – | – | –
60 | O=S(=O)(Sc1ccccc1)c1ccc(Cl)cc1 | -86.8 °C | – | – | – | – | – | –
61 | Clc1nnnn1-c1ccccc1 | 123 °C | – | – | – | – | – | –
62 | Cc1ccc2c(ccc3cc4ccccc4cc32)c1 | 156 °C | – | – | – | – | – | –
63 | CCOC(=O)CC(=O)c1ccc([N+](=O)[O-])cc1 | 72 °C | – | – | – | – | – | –
64 | C1CSCCS1 | 112 °C | – | 200 °C | -0.0969 | – | – | –
65 | COC1=CC(=O)O[C@@H](/C=C/c2ccccc2)C1 | 106 °C | – | – | – | – | – | –
66 | COc1cccc(C(=O)O)c1O | 151 °C | – | – | – | – | – | –
67 | CCCCNCC | -78 °C | readily biodegradable | 108 °C | – | – | – | –
68 | Cc1c2ccccc2nc2ccccc12 | 118 °C | – | – | – | – | – | –
69 | O=C(Nc1ncc([N+](=O)[O-])s1)c1cccs1 | 256 °C | – | – | – | – | – | –
70 | CCCCCCCCCCCCCC=O | 20.5 °C | – | 260 °C | – | – | – | –
71 | C=Cc1ccc2ccccc2c1 | 66 °C | – | – | – | – | – | –
72 | O=C(O)c1cccc(C(=O)O)n1 | – | readily biodegradable | – | – | – | – | –

Row | Compound | melting point | ready biodegradability | boiling point | log10 vapour pressure (mmHg) | log10 Koc (L/kg) | log10 Henry constant (atm·m³/mol) | log10 Koa
73 | N#CCCCl | -51 °C | – | 176 °C | – | – | – | –
74 | CCN(CC)CCN1C(=O)CN=C(c2ccccc2F)c2cc(Cl)ccc21 | 79.5 °C | – | – | – | – | – | –
75 | CCOP(=S)(OCC)OCCSCC | – | – | – | – | 2.59 | – | –
76 | Cc1[nH]c2ccccc2c1C | 106 °C | – | 285 °C | – | – | – | –
77 | CCCCCCCCCCCCCCCBr | 19 °C | – | 322 °C | -3.83 | – | – | –
78 | CC(Br)CBr (centres undefined) | -55.5 °C | – | 142 °C | 0.894 | – | – | –
79 | CNC(=O)C(C)SCCSP(=O)(OC)OC (centres undefined) | 43 °C | – | – | – | – | – | –
80 | CCCCCC(=O)Nc1ccccc1 | 95 °C | – | – | – | – | – | –
81 | O=CCCl | -16.3 °C | – | 85.5 °C | 1.81 | – | – | –
82 | c1ccc2cc3cc4cc5ccccc5cc4cc3cc2c1 | 257 °C | not readily biodegradable | – | – | – | – | –
83 | CC(=O)Oc1c(C)cc(OCC(O)CNC(C)C)c(C)c1C (centres undefined) | 106 °C | – | – | – | – | – | –
84 | Cc1cc(Cl)ccc1O | 51 °C | not readily biodegradable | 209 °C | -1.62 | – | – | –
85 | CCSCC | -104 °C | – | 92.1 °C | 1.78 | – | -2.77 | –
86 | CC1(C)CC=CCC1 | -74.4 °C | – | 117 °C | – | – | – | –
87 | CC1CS1 (centres undefined) | -91 °C | – | 72.5 °C | – | – | – | –
88 | Oc1c(Cl)cc(Cl)cc1Sc1cc(Cl)cc(Cl)c1O | 188 °C | – | – | – | – | – | –
89 | COC(=O)Cn1ccnc1[N+](=O)[O-] | 96 °C | – | – | – | – | – | –
90 | CC(=O)Oc1ccccc1 | -30 °C | – | 196 °C | -0.4 | – | – | –
91 | c1ccc2c(c1)CCCN2 | 20 °C | – | 251 °C | – | – | – | –
92 | Oc1ccccc1-c1nc2ccccc2o1 | 124 °C | – | 338 °C | – | – | – | –
93 | FC(F)OCC(F)(F)F | – | – | 29.3 °C | 2.81 | – | – | –
94 | Clc1cc(Cl)c2oc3cc(Cl)c(Cl)cc3c2c1 | 202 °C | – | – | -7.71 | – | – | –
95 | CC(C)CCOC(=O)C(=O)OCCC(C)C | -9 °C | – | 268 °C | – | – | – | –

Same assay, conditions: fish

Row | Compound | log10 BCF | log10 biotransformation half-life (days)
96 | Clc1cc2oc3c(Cl)c(Cl)ccc3c2cc1Cl | 2.72 | –
97 | C[n+]1ccc(-c2cc[n+](C)cc2)cc1 | 0.28 | –
98 | Cc1cc(Cl)ccc1O | 1.33 | -0.83
